{
  "source": "ChEMBL document CHEMBL3102730",
  "about": "“Synthesis and evaluation of isoleucine derived angiotensin II AT(2) receptor ligands” (Bioorg Med Chem Lett, 2014)",
  "key": {"[1]": {"target": "T1, Type-1 angiotensin II receptor (Homo sapiens) (UniProt P30556)", "T1 sequence (whole entry)": "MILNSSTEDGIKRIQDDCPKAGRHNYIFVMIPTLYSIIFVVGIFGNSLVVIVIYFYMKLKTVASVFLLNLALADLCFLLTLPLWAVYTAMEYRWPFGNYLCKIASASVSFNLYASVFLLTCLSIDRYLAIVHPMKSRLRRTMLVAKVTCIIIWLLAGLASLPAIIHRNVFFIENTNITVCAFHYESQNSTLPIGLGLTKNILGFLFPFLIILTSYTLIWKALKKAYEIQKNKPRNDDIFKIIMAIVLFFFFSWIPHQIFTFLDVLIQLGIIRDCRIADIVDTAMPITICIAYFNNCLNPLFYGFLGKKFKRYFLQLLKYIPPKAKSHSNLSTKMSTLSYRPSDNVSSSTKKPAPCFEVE", "test": "Binding affinity to AT1 receptor (unknown origin)"}, "[2]": {"target": "T2, Type-2 angiotensin II receptor (Homo sapiens) (UniProt P50052)", "T2 sequence (whole entry)": "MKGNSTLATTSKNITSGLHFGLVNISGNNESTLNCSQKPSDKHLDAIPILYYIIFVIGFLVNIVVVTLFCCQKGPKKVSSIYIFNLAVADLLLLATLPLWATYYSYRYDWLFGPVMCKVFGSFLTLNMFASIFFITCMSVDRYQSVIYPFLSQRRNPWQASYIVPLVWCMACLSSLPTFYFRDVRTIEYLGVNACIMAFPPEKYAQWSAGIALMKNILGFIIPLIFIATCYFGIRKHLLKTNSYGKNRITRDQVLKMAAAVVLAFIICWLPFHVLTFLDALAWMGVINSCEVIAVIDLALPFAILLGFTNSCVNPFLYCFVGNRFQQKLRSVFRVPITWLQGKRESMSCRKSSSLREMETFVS", "test": "Displacement of [125I]CGP-42112A from human AT2 receptor expressed in HEK293 cells at 10 uM", "format": "cell-based"}, "[3]": {"target": "T2, Type-2 angiotensin II receptor (Homo sapiens)", "test": "Displacement of [125I]CGP-42112A from human AT2 receptor expressed in HEK293 cells at 1 uM", "format": "cell-based"}, "[4]": {"target": "T3, Type-2 angiotensin II receptor (Homo sapiens, UniProt P50052)", "T3 sequence (P50052 whole entry)": "T2 sequence (whole entry)", "test": "Displacement of [125I]CGP-42112A from human AT2 receptor expressed in HEK293 cells", "format": "cell-based"}, "[5]": {"target": "T3, Type-2 angiotensin II receptor", "test": "Displacement of [125I]Sarile from human AT2 receptor expressed in HEK293 cells", "format": "cell-based"}},
  "note": "Calls of active or inactive are those of the source. No cut-off for these calls is given here.",
  "data": [
    {"smiles": "CC[C@H](C)[C@H](NC(=O)c1cccc(Cn2ccnc2)c1)C(=O)NCC(F)(F)F", "values": [
      {"measurement": "Activity", "setting": "[1]", "value": "inactive"},
      {"measurement": "inhibition", "setting": "[2]", "value": 14, "unit": "%"},
      {"measurement": "inhibition", "setting": "[3]", "value": 6, "unit": "%"}
    ]},
    {"smiles": "CC[C@H](C)[C@H](NC(=O)c1cccc(Cn2ccnc2)c1)C(=O)NNS(=O)(=O)c1ccc(C)cc1", "values": [
      {"measurement": "Activity", "setting": "[1]", "value": "inactive"},
      {"measurement": "inhibition", "setting": "[2]", "value": 20, "unit": "%"},
      {"measurement": "inhibition", "setting": "[3]", "value": 4, "unit": "%"},
      {"measurement": "Ki", "setting": "[4]", "value": 29, "unit": "µM"}
    ]},
    {"smiles": "CC[C@H](C)[C@H](NC(=O)c1cccc(Cn2ccnc2)c1)C(=O)NNS(=O)(=O)c1c(C)cc(C)cc1C", "values": [
      {"measurement": "Activity", "setting": "[1]", "value": "inactive"},
      {"measurement": "inhibition", "setting": "[2]", "value": 27, "unit": "%"},
      {"measurement": "inhibition", "setting": "[3]", "value": 10, "unit": "%"},
      {"measurement": "Ki", "setting": "[4]", "value": 8.5, "unit": "µM"}
    ]},
    {"smiles": "CC[C@H](C)[C@H](NC(=O)c1cccc(Cn2ccnc2)c1)C(=O)NS(=O)(=O)c1ccccc1", "values": [
      {"measurement": "Activity", "setting": "[1]", "value": "inactive"},
      {"measurement": "inhibition", "setting": "[2]", "value": 24, "unit": "%"},
      {"measurement": "inhibition", "setting": "[3]", "value": 5, "unit": "%"},
      {"measurement": "Ki", "setting": "[4]", "value": 18, "unit": "µM"}
    ]},
    {"smiles": "CCCCCS(=O)(=O)NNC(=O)[C@@H](NC(=O)c1cccc(Cn2ccnc2)c1)[C@@H](C)CC", "values": [
      {"measurement": "Activity", "setting": "[1]", "value": "inactive"},
      {"measurement": "Ki", "setting": "[4]", "value": "> 100", "unit": "µM"}
    ]},
    {"smiles": "CC[C@H](C)[C@H](NC(=O)c1cccc(Cn2ccnc2)c1)C(=O)Nc1nccs1", "values": [
      {"measurement": "Activity", "setting": "[1]", "value": "inactive"},
      {"measurement": "inhibition", "setting": "[2]", "value": 17, "unit": "%"},
      {"measurement": "inhibition", "setting": "[3]", "value": 4, "unit": "%"},
      {"measurement": "Ki", "setting": "[4]", "value": 42, "unit": "µM"}
    ]},
    {"smiles": "CC[C@H](C)[C@H](NC(=O)c1cccc(Cn2ccnc2)c1)C(=O)NNC(=O)OC(C)(C)C", "values": [
      {"measurement": "Activity", "setting": "[1]", "value": "inactive"},
      {"measurement": "Ki", "setting": "[4]", "value": "> 100", "unit": "µM"}
    ]},
    {"smiles": "CCCCNC(=O)[C@@H](NC(=O)c1cccc(Cn2ccnc2)c1)[C@@H](C)CC", "values": [
      {"measurement": "Activity", "setting": "[1]", "value": "inactive"},
      {"measurement": "inhibition", "setting": "[2]", "value": 3, "unit": "%"},
      {"measurement": "inhibition", "setting": "[3]", "value": "inactive"}
    ]},
    {"smiles": "CC[C@H](C)[C@H](NC(=O)c1cccc(Cn2ccnc2)c1)C(=O)O", "values": [
      {"measurement": "Activity", "setting": "[1]", "value": "inactive"},
      {"measurement": "Ki", "setting": "[5]", "value": 47, "unit": "µM"}
    ]},
    {"smiles": "CC[C@H](C)[C@H](NC(=O)c1cccc(Cn2ccnc2)c1)C(N)=O", "values": [
      {"measurement": "Activity", "setting": "[1]", "value": "inactive"},
      {"measurement": "inhibition", "setting": "[2]", "value": "inactive"},
      {"measurement": "inhibition", "setting": "[3]", "value": "inactive"}
    ]},
    {"smiles": "CC[C@H](C)[C@H](NC(=O)c1cccc(Cn2ccnc2)c1)C(=O)NO", "values": [
      {"measurement": "Activity", "setting": "[1]", "value": "inactive"},
      {"measurement": "inhibition", "setting": "[2]", "value": 4, "unit": "%"},
      {"measurement": "inhibition", "setting": "[3]", "value": "inactive"}
    ]},
    {"smiles": "CC[C@H](C)[C@H](NC(=O)c1cccc(Cn2ccnc2)c1)C(=O)NNS(=O)(=O)c1ccc(OC)cc1", "values": [
      {"measurement": "Activity", "setting": "[1]", "value": "inactive"},
      {"measurement": "inhibition", "setting": "[2]", "value": 20, "unit": "%"},
      {"measurement": "inhibition", "setting": "[3]", "value": 3, "unit": "%"},
      {"measurement": "Ki", "setting": "[4]", "value": 9.2, "unit": "µM"}
    ]},
    {"smiles": "CC[C@H](C)[C@H](NC(=O)c1cccc(Cn2ccnc2)c1)C(=O)NC#N", "values": [
      {"measurement": "Activity", "setting": "[1]", "value": "inactive"},
      {"measurement": "inhibition", "setting": "[2]", "value": 9, "unit": "%"},
      {"measurement": "inhibition", "setting": "[3]", "value": 6, "unit": "%"}
    ]},
    {"smiles": "CC[C@H](C)[C@H](NC(=O)c1cccc(Cn2ccnc2)c1)c1nn[nH]n1", "values": [
      {"measurement": "Activity", "setting": "[1]", "value": "inactive"},
      {"measurement": "inhibition", "setting": "[2]", "value": "inactive"},
      {"measurement": "inhibition", "setting": "[3]", "value": "inactive"}
    ]},
    {"smiles": "CC[C@H](C)[C@H](NC(=O)c1cccc(Cn2ccnc2)c1)C(=O)NNS(=O)(=O)c1ccccc1", "values": [
      {"measurement": "Activity", "setting": "[1]", "value": "inactive"},
      {"measurement": "inhibition", "setting": "[2]", "value": 18, "unit": "%"},
      {"measurement": "inhibition", "setting": "[3]", "value": 6, "unit": "%"},
      {"measurement": "Ki", "setting": "[4]", "value": "> 100", "unit": "µM"}
    ]},
    {"smiles": "CCCCS(=O)(=O)NC(=O)[C@@H](NC(=O)c1cccc(Cn2ccnc2)c1)[C@@H](C)CC", "values": [
      {"measurement": "Activity", "setting": "[1]", "value": "inactive"},
      {"measurement": "Ki", "setting": "[4]", "value": 9.9, "unit": "µM"}
    ]},
    {"smiles": "CCCCS(=O)(=O)NNC(=O)[C@@H](NC(=O)c1cccc(Cn2ccnc2)c1)[C@@H](C)CC", "values": [
      {"measurement": "Activity", "setting": "[1]", "value": "inactive"},
      {"measurement": "Ki", "setting": "[4]", "value": "> 100", "unit": "µM"}
    ]}
  ]
}
